Measured values as given in ChEMBL document CHEMBL1201862, “PubChem BioAssay data set” (2004).
The source made the active and inactive calls.

What was measured:
[1] = system: Streptococcus; test: GAS UMAA2166 growth inhibition – luminescence, BacTiterGlo, counter-screen for streptokinase expression inhibitor project, dose response (AID 1915); type: functional, organism-based;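 note: potency for reduction of bacterial viability or growth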
[2] = system: Streptococcus sp. 'group A'; test: Streptococcus pyogenes SK(-)GAS viability under kanamycin – luminescence, BacTiterGlo, confirmation, counter-screen for streptokinase expression inhibitor project, dose response (AID 1900); type: functional, organism-based
[3] = target: Heat shock protein HSP 90-alpha (Homo sapiens, UniProt P07900); type: functional, organism-based
[4] = target: T1, Rac GTPase-activating protein 1 (Homo sapiens, UniProt Q9H0H5); test: blockers of MgcRacGAP-driven Rac1 GTP hydrolysis – biochemical, ADP Hunter fluorescence, primary and confirmatory, confirmation (AID 624330); type: functional
T1 sequence (Q9H0H5 whole entry): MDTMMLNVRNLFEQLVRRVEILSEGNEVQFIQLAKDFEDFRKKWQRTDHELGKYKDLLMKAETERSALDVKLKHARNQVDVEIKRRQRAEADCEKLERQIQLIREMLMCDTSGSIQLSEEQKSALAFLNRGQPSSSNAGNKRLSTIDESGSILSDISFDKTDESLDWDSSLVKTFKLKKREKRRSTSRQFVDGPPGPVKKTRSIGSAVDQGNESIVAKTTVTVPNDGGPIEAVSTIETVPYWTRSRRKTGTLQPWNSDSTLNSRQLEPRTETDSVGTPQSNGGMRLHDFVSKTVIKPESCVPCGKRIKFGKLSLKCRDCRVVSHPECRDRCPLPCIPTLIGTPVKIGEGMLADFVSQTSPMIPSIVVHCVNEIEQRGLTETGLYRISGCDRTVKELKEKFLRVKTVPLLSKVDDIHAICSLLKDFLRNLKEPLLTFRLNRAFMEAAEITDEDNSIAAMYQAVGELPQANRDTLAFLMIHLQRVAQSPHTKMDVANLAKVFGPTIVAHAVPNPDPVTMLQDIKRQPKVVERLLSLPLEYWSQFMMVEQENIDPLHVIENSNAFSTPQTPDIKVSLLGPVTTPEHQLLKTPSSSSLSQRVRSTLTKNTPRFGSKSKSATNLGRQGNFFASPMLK

[5] = viability loss in HeLa cells – cytotoxicity control for MgcRacGAP inhibitor project, dose response (AID 624300); type: functional
[6] = target: T2, DNA repair and recombination protein RAD54-like (Homo sapiens, UniProt Q92698); test: RAD54 Holliday junction migration blockers – biochemical, fluorescence, cherry-picked samples, dose series, confirmation (AID 651657); type: functional
T2 sequence (Q92698 whole entry): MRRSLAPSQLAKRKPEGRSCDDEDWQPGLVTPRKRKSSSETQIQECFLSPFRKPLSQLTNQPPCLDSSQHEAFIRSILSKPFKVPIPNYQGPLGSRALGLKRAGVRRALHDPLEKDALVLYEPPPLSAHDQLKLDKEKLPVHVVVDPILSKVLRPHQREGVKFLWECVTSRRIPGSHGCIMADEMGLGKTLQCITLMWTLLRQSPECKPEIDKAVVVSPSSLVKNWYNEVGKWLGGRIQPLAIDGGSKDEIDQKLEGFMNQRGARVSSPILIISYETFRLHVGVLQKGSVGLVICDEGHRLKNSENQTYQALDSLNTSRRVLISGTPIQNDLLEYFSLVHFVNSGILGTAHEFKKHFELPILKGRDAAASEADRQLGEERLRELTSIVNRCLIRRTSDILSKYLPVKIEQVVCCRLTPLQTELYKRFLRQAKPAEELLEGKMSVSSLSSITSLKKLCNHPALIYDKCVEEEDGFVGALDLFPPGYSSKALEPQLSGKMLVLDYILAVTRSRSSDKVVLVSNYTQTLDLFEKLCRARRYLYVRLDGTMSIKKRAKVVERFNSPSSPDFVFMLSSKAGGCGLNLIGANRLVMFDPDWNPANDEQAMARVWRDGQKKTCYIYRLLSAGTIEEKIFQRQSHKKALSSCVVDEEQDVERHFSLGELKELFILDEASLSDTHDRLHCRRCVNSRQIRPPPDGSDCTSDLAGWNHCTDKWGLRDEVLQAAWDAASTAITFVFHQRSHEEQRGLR

[7] = blockade of melanocortin 4 receptor signaling – cell-based, plate reader, cherry pick, counter-screen for LGR2 antagonist project, dose response (AID 743444); type: functional;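 note: transfected HEK 293 cells stimulated with alpha-MSH peptide; potency of inhibitors of the alpha-MSH evoked signal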
[8] = viability loss in HEK293 cells – cell-based, plate reader, cherry-picked samples, cytotoxicity control, dose response (AID 743446); type: functional
[9] = toxicity toward HepG2 liver cells – cell-based, plate reader, cherry-pick, antagonist series, cytotoxicity control, dose response (AID 743416); type: functional
[10] = system: HEK293; test: EBV LMP1 TES2 canonical NF-kB signalling blockers – cell-based, HEK293, luciferase, cherry-pick, dose response (AID 588343); type: functional; settings: Homo sapiens
[11] = blockers of bursicon-stimulated LGR2 cAMP reporter – cell-based, HEK293, CRE-luciferase reporter, cherry pick, set 2, dose response (AID 743343); type: functional;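 note: transfected cells were stimulated with diluted bursicon conditioned medium after compound addition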
[12] = target: T3, Endoribonuclease toxin MazF (Escherichia coli K-12, UniProt P0AE70); test: substrate-only fluorescence increase artefacts – biochemical, single-stranded RNase substrate, counter-screen for MazEF activator project, dose response (AID 588502); type: functional
T3 sequence (P0AE70 whole entry): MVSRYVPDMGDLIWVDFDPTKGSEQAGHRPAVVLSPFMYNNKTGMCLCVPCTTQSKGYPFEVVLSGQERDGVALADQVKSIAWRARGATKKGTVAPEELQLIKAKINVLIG

[13] = target: T3, Endoribonuclease toxin MazF; test: activation of MazEF endoribonuclease cleavage – biochemical, fluorescence, single-stranded RNA substrate, uHTS hits, dose response (AID 588481); type: functional
[14] = HIV-1 Vif–A3G interaction blockers – biochemical, TR-FRET, GST-Vif 1-94, biotin-A3G peptide, dose response retest, primary screen (AID 1117319); type: functional;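 note: TR-FRET signal of purified GST-Vif binding a biotinylated A3G peptide; inhibitors lower the FRET signal by blocking Vif and A3G binding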
[15] = target: T4, Zinc finger protein mex-5 (Caenorhabditis elegans, UniProt Q9XUB2); test: potency of MEX-5 RNA-binding blockers – biochemical, C. elegans, fluorescence polarization, dose response (AID 1960)
T4 sequence (Q9XUB2 whole entry): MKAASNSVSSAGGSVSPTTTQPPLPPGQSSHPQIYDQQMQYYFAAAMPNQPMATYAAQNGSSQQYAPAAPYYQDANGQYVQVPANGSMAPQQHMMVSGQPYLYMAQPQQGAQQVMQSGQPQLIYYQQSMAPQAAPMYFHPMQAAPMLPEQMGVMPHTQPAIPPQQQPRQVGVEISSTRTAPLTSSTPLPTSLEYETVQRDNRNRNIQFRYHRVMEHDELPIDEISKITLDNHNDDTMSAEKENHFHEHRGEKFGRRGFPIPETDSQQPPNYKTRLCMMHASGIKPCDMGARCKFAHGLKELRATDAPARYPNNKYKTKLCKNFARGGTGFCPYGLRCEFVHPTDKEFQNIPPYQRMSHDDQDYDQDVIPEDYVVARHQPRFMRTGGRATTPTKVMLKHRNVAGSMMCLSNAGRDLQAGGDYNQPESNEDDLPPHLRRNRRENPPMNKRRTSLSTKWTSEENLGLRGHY

[16] = target: T5, RNA-binding protein pos-1 (Caenorhabditis elegans, UniProt G5EF15); test: disruptors of C. elegans POS-1 RNA interaction – biochemical, fluorescence polarization, dose response (AID 1964);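 note: purified POS-1 fused to maltose binding protein made in E. coli; potency of compounds blocking POS-1 binding to fluorescent RNA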
T5 sequence (G5EF15 whole entry): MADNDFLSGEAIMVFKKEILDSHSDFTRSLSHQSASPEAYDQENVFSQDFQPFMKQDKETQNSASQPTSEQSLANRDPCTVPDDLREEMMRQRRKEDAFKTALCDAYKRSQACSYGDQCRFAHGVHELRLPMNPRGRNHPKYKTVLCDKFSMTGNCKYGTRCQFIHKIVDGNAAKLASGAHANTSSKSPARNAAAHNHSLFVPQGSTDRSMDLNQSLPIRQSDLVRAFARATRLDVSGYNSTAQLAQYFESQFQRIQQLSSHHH

[17] = target: Genome polyprotein (dengue virus type 2, UniProt P29990); test: flavivirus cap methylation enzyme inhibition – biochemical, confirmation dose response, primary screen (AID 588689); type: functional
Chain of Genome polyprotein (P29990 2492-3391 limits assumed): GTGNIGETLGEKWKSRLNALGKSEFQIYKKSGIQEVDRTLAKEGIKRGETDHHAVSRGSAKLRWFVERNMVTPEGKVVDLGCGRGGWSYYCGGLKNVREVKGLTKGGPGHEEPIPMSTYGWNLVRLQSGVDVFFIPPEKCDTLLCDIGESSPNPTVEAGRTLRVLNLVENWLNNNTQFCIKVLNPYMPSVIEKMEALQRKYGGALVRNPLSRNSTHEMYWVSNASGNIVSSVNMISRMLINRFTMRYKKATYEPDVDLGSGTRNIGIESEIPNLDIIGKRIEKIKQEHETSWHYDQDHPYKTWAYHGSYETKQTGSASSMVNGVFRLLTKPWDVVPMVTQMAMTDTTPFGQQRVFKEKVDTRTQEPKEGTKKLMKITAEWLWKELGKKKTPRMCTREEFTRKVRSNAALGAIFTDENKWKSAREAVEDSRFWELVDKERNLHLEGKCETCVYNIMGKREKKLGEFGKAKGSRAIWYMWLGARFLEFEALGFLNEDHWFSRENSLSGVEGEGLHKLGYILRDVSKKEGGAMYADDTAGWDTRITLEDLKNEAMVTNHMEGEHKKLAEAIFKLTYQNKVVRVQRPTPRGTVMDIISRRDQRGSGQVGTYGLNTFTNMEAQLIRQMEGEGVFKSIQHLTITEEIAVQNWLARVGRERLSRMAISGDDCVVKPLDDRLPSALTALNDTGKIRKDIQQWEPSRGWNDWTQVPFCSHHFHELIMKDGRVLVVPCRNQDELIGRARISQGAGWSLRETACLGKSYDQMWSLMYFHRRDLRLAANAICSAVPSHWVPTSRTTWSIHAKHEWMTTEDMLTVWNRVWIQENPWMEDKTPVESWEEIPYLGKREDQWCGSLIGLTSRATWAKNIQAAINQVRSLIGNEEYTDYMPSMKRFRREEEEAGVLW

## O=C(Nc1nc(-c2ccccn2)cs1)c1ncc(Cl)c(Cl)c1Cl
[1]
  EC50: 1.64 µM (active)
[2]
  EC50: 390 nM (active)
[3]
  AC50: 3.55 µM (active)

## Clc1ccc(OCCOCCNCc2ccccc2)cc1Cl
[4]
  IC50: 149 µM (active)
[5]
  CC50: 91.9 µM (active)

## OC1CCCN(Cc2c3ccccc3cc3ccccc23)C1 (stereo unspecified)
[6]
  AC50: 4.09 µM (active)

## O=C(Nc1ccccc1)c1cn2ccccc2n1
[7]
  AC50: 6.74 µM (active)
[8]
  AC50: 48.4 µM (active)
[9]
  AC50: > 52 µM (inactive)
[10]
  AC50: 3.47 µM (active)
[11]
  AC50: 6.06 µM (active)

## COc1cc2nc3c(O)n(CCN4CCCCC4)cnc-3c2cc1OC
[6]
  AC50: 36.3 µM (active)

## NC(=O)c1ccc(-n2nnnc2SCC(=O)Nc2ccccc2F)cc1
[12]
  EC50: > 99 µM (inactive)
[13]
  EC50: > 99 µM (inactive)

## CC(C)C(NC(N)=O)C(=O)NC1CCCCC1 (stereo unspecified)
[14]
  IC50: > 100 µM (active)

## Cn1c(C(=O)NCCCN2CCOCC2)cc2c(=O)n(C)c3ccccc3c21
[15]
  EC50: > 300 µM (not active)
[16]
  EC50: > 300 µM (not active)
[6]
  AC50: 26.1 µM (active)

## O=C1C(=Cc2cccn2-c2ccc(O)cc2)C(=O)c2ccccc21
[12]
  EC50: 50.3 µM (inactive)
[17]
  IC50: 10.1 µM (active)
[13]
  EC50: > 99 µM (inactive)
